# Like-named read-outs stand apart in the source and are kept apart here.
# Assays:
# P. aeruginosa biofilm [1] = assay: Biofilm formation inhibition assay, crystal violet staining; assay type: cell-based, Pseudomonas aeruginosa PAO1; settings: 6 h
# Method: (§1) A Pseudomonas aeruginosa PAO1 inoculum was freshly prepared by inoculating one colony in 10 mL of LB broth and incubating on an orbital shaker at 220 rpm at 37° C. for 16-17 h. The bacterium culture medium was diluted 200-fold to an optical density at 600 nm (OD600) between 0.003-0.005 in M9 minimal medium (containing 48 mM Na2HPO4, 22 mM KH2PO4, 9 mM NaCl, 19 mM NH4Cl, 2 mM MgSO4, 0.1 mM CaCl2), and 20 mM glucose, pH 7.0). This medium was freshly prepared for each experiment.
# (§2) For the biofilm inhibition assay, various treatment formulations were added to the 24-well microtiter plates simultaneously as cell culture media placement. The plates were incubated on an orbital shaker at 180 rpm for 6 h incubation at 37° C. For this 6 h biofilm dispersal assay, the plates were incubated on an orbital shaker at 180 rpm for 6 h at 37° C. for biofilm formation. Planktonic bacteria were removed, and 1 mL of fresh M9 minimal medium was added to each well, followed by each treatment addition. The plates were incubated for a further 2.5-3 h before quantifying the biofilm biomass and viabilities of biofilm bacteria.
# (§3) The biofilm biomass was analysed by crystal violet (CV) staining. The biofilm on each well surface of the plates was washed once with 1 mL PBS before CV staining. 1 mL of 0.1% CV solution made by a 1:20 dilution of 2% CV aqueous solution in PBS. The CV stained biofilm was washed twice with 1 mL PBS after 20 min incubation. The remaining CV stained biofilm was dissolved in 33% glacial acetic acid and quantified by measuring the absorbance at 550 nm (OD550) using a multimode microplate reader (VICTOR™ X4, Perkin-Elmer). All biofilm assays were performed in two independent experiments.
# P. aeruginosa W.T. PAO1 = assay: Minimum inhibitory concentration (MIC), broth microdilution; assay type: cell-based, Pseudomonas aeruginosa; settings: 37° C., 24 h
# Method: The minimum inhibitory concentration (MIC) of the antimicrobial agents was measured using the broth microdilution technique. A bacterial culture medium with 10^5-10^6 CFU mL^−1 was prepared freshly in Mueller-Hinton (MH) broth and added to a 2-fold serial dilution of antimicrobial agents in 96-well microplates. A cell-only control and a medium-only control were also included in the same microplate. The 96-well microplates were incubated at 37° C. for 24 h. MIC was determined to be the concentration of antimicrobial agents at which the optical density (OD600) was equal to that of a medium-only control using a multimode microplate reader (VICTOR™ X4, Perkin-Elmer). The MIC can also be recorded as the lowest concentration preventing visible bacterial growth after 24 h.
# [2] = test system: P. aeruginosa biofilm bacteria; assay: Biofilm bacteria viability by CFU counting (drop-plate method); assay type: cell-based, Pseudomonas aeruginosa PAO1; settings: FIG. 8; single component alone (AMK 4 or 8 μg/mL, nitroxide 2 mM, phage 10^6 PFU/mL); 2 h treatment
# Method: The cells in the treated and untreated groups were counted using the drop-plated method to determine the biofilm bacteria viability. Biofilms on the surface of the wells were rinsed with once 1 mL PBS and then were resuspended in 1 mL PBS. The 24-well plates were placed in an ultrasonication bath for 5 min before viable cells count assay. The re-suspended biofilm bacteria were serially diluted 10-fold (10^−1 to 10^−10) in PBS, and 10 μL of each dilution was dropped onto MH agar plates in duplicate, which were incubated at 37° C. overnight. The results are presented as CFU mL^−1. A graph illustrating the effects of different POEGA-b-PVBA conjugated formulations on biofilm cell survival are shown in FIG. 8.
# (§4) Biofilm dispersal and bacterial viability assays were conducted as described above using samples set out in Table 2. A graph illustrating the effects of different POEGA-b-PPFPA conjugated formulations on biofilm dispersal are shown in FIG. 13 and on biofilm cell survival are shown in FIG. 14.
# P. aeruginosa biofilm [3] = assay: Biofilm dispersal assay, crystal violet staining of biofilm biomass; assay type: cell-based, Pseudomonas aeruginosa PAO1
# Method: as §1
# as §2, with “The plates were incubated for a further 2.5-3 h before quantifying the biofilm biomass and viabilities of biofilm bacteria.” left out
# The concentrations of each component used for the treatments would be based on their individual effects on biofilm dispersal. […]
# as §3, §4
# P. aeruginosa biofilms = assay: Confocal microscopy of LIVE/DEAD stained biofilms; assay type: cell-based, Pseudomonas aeruginosa; settings: nitroxide at 2 mM; LIVE/DEAD staining, FIG. 9
# Method: For microscopy analysis, P. aeruginosa biofilms were grown in glass-bottom 24-well plates (MatTek Corporation, Ashland MA, USA) for 6 h. After 3 h treatment, biofilms were rinsed twice with PBS before being stained with LIVE/DEAD® BacLight™ bacterial viability kit reagents (L-7007, Molecular Probes) according to the manufacturer's procedure. According to the manufacturer's procedure, 1 to 10 dilution of each of the two components was freshly prepared with PBS. 0.3 mL of the mixed solution was added to each well for 20 min incubation, and the plate was kept in the dark condition. The samples were analysed using confocal laser scanning microscopy (CLSM) with a Nikon A1 confocal microscope. Representative confocal images showing P. aeruginosa biofilms treated with POEGA-b-PVBA conjugated formulations are shown in FIG. 9.
"MIC (P. aeruginosa W.T. PAO1; Pseudomonas aeruginosa, PAO1, MH broth, read-out: MIC)",Structure (SMILES),effect on inhibiting the formation of biofilms (P. aeruginosa biofilm [1]; AMK at a higher concentration than 4 μg mL^−1),concentration at which biofilm formation was inhibited (P. aeruginosa biofilm [1]; added with inoculated culture),survival of biofilm bacteria [2],"reduction of biofilm biomass of pre-established P. aeruginosa biofilm (P. aeruginosa biofilm [3]; AMK alone at 32 μg mL^−1, 8×MIC, 6 h biofilm, 2 h treatment)","effect on biofilm dispersal (P. aeruginosa biofilm [3]; cotreatment study FIG. 7, AMK 4 or 8 μg/ml, phage 10^6 PFU mL^−1, 6 h biofilm, 2 h treatment)",inhibition of biofilm formation (P. aeruginosa biofilm [1]; nitroxide concentration range of 1 to 5 mM),MIC (P. aeruginosa W.T. PAO1; MH broth),"P. aeruginosa biofilm dispersal (P. aeruginosa biofilm [3]; comparative example, FIG. 13A, printed: nitroxide agent alone at AMK concentration of 8 μg/mL)","reduction of biofilm biomass (P. aeruginosa biofilm [3]; cotreatment study FIG. 7, nitroxide 2 mM, phage 10^6 PFU mL^−1, AMK 4 and 8 μg mL^−1, POEGA-b-PVBA linker, 2 h treatment)","P. aeruginosa biofilm dispersal (P. aeruginosa biofilm [3]; nitroxide alone at 2 mM, 6 h biofilm, 2 h treatment)","P. aeruginosa biofilm dispersal (P. aeruginosa biofilm [3]; nitroxide alone at 5 mM, 6 h biofilm, 2 h treatment)","biofilm biovolume, confocal (P. aeruginosa biofilms)"
4 µg/mL,"NCC[C@H](O)C(=O)N[C@@H]1C[C@H](N)[C@@H](O[C@H]2O[C@H](CN)[C@@H](O)[C@H](O)[C@H]2O)[C@H](O)[C@H]1O[C@H]1O[C@H](CO)[C@@H](O)[C@H](N)[C@H]1O [AMK, amikacin]",strong effect,4 µg/mL,did not affect,10%,did not have an effect,,,,,,,
,"CC1(C)CC(N)CC(C)(C)N1[O] [nitroxide, 4-amino-2,2,6,6-tetramethyl-piperidinyloxyl]",,,did not affect,,,significantly inhibited biofilm formation,6 mM,about 30%,about 30%,30%,70%,greatly reduced biofilm biovolume

# From patent US20250032636A1, “Phage-Drug Conjugate” (The University of Sydney, priority 2021, published 2025)
